Data reported in patent US11944624B2, “Peptide and small molecule agonists of EphA and their uses” (CASE WESTERN RESERVE UNIVERSITY, priority 2017, dated 2024).

What was measured:
EphA4 = target: T1, EphA4 (Homo sapiens, UniProt P54764); assay: EphA4 activation in HEK 293 cells overexpressing EphA4; format: cell-based; conditions: HEK 293 overexpressing EphA4, 60 minutes
T1 construct: expressed in transfected cells; host or cells: HEK 293
Protocol: Cells were plated in 24-well dishes at a density of 100,000 cells/well and grown for 24 hours prior to stimulation with appropriate compounds and ephrins for the given amounts of time. Compounds were prepared in DMSO at 500 times the final concentrations and 0.2% DMSO was used as vehicle control. Following treatment, cells were lysed directly in SDS Gel Loading Buffer and immunoblotted as described previously. […] For immunoprecipitation, 300,000 cells/well were plated in 6-well dishes and lysed in modified RIPA Buffer (20 mM Tris-HCl pH 7.4, 20 mM NaF, 150 mM NaCl, 10% glycerol, 0.1% SDS, 0.5% DCA, 2 mM EDTA, 1% Triton X-100) following treatment. Either 10 μg of ephrin-A1-Fc, or 4 mg of EphA2 mouse monoclonal antibody (Clone D7, Millipore) were used, and mouse IgG was used as a negative control for EphA2 IP. […] For this purpose, HEK 293 cell lines overexpressing EphA1, EphA2, EphA3, EphA4, and EphB3 kinases were utilized.

PC3-DAB2IP KD cells = assay: In vivo metastasis assay, orthotopic PC3-DAB2IP KD xenograft
Protocol: PC-3 cells (from ATCC) engineered to express both GFP and DAB2IP shRNA were characterized previously. Cells were suspended in serum free medium and 2,000 cells injected directly into the prostate glands of 7 week old NCr athymic nu/nu mice. Three days after injection, mice were divided into two groups, one receiving vehicle alone (5% DMSO/10% Cremophor/PBS) and another 50 mg/kg doxazosin via intraperitoneal injection daily for 10 days. Mice were sacrificed 14 days later and intact primary tumors were imaged under a UV light box with a Digital camera. Lungs were dissected into separate lobes and GFP-expressing metastases were imaged using an inverted fluorescent microscope (Leica). Metastases were enumerated in the two largest lung lobes and placed into size categories based upon their diameters, measured in number of cells (1-10 cells). Total metastatic burden was calculated in each mouse using the following equation: [burden=Σ (# of foci×focus diameter)].
We took advantage of this newly established model system to test how doxazosin can affect metastasis of prostate cancer. To this end, PC3-DAB2IP KD cells were injected orthotopically into the prostate glands of nude mice. Three days later, recipient mice were subject to systemic treatment by daily i.p. injection of either vehicle control, or 50 mg/kg doxazosin for 10 days. Since these cells also expressed green fluorescent protein (GFP), freshly dissected primary tumors could be readily visualized in a GFP light box (FIG. 7A top panels), and distal metastases to lungs and lymph nodes could be observed and quantified under a fluorescent microscope (FIG. 7A lower panels).
Next, we determined whether doxazosin treatment might impact overall survival. Nude mice orthotopically implanted with the PC3-DAP2IP KD cells were treated for 10 days with either doxazosin, or vehicle control and monitored for survival.

EphA2 [1] = target: T2, EphA2 (Homo sapiens, UniProt P29317); assay: EphA2 activation in HEK 293-A2 cells (pEphA/B immunoblot); format: cell-based; design: expressed in transfected cells
Protocol: Cells were plated in 24-well dishes at a density of 100,000 cells/well and grown for 24 hours prior to stimulation with appropriate compounds and ephrins for the given amounts of time. Compounds were prepared in DMSO at 500 times the final concentrations and 0.2% DMSO was used as vehicle control. Following treatment, cells were lysed directly in SDS Gel Loading Buffer and immunoblotted as described previously. Immunoprecipitation and immunofluorescence staining was performed as described. For immunoprecipitation, 300,000 cells/well were plated in 6-well dishes and lysed in modified RIPA Buffer (20 mM Tris-HCl pH 7.4, 20 mM NaF, 150 mM NaCl, 10% glycerol, 0.1% SDS, 0.5% DCA, 2 mM EDTA, 1% Triton X-100) following treatment. Either 10 μg of ephrin-A1-Fc, or […] of EphA2 mouse monoclonal antibody (Clone D7, Millipore) were used, and mouse IgG was used as a negative control for EphA2 IP.
To determine whether the EphA2 agonist activity of doxazosin is cell-context specific, we evaluated the effects of doxazosin on additional cell types. We first utilized HEK 293 cells overexpressing EphA2 (HEK 293-A2) that we described previously. […] Next we tested PC-3 cells that express high levels of endogenous EphA2 receptor. […] We next evaluated the time-course of activation in both MDA-231-A2 and HEK 293-A2 cells upon treatment with a single 50 μM dose of doxazosin.

EphA2 [2] = target: T2, EphA2; assay: EphA2 activation in MDA-231-A2 cells (pEphA/B immunoblot); format: cell-based; design: expressed in transfected cells; host or cells: MDA-MB-231 (MDA-231-A2 / MDA-MB-231-A2), puromycin selected; EphA2 activation in compound screen: dose or concentration left out as unconfirmed
Protocol: Cells were plated in 24-well dishes at a density of 100,000 cells/well and grown for 24 hours prior to stimulation with appropriate compounds and ephrins for the given amounts of time. Compounds were prepared in DMSO at 500 times the final concentrations and 0.2% DMSO was used as vehicle control. Following treatment, cells were lysed directly in SDS Gel Loading Buffer and immunoblotted as described previously. Immunoprecipitation and immunofluorescence staining was performed as described. For immunoprecipitation, 300,000 cells/well were plated in 6-well dishes and lysed in modified RIPA Buffer (20 mM Tris-HCl pH 7.4, 20 mM NaF, 150 mM NaCl, 10% glycerol, 0.1% SDS, 0.5% DCA, 2 mM EDTA, 1% Triton X-100) following treatment. Either 10 μg of ephrin-A1-Fc, or […] of EphA2 mouse monoclonal antibody (Clone D7, Millipore) were used, and mouse IgG was used as a negative control for EphA2 IP. To identify small molecule agonists for EphA2, we took a structure-based in silico screening approach. […] This notion was confirmed recently by determination of the crystal structure of the EphA2/ephrin-A1 complex (FIG. 1B). The size falls in the range of common drugs, making EphA2 LBD a desirable target for drug discovery. Toward this end, we initiated in silico screening to search for small molecules that interact favorably with the ligand-binding pocket of EphA2 derived from molecular modeling before the crystal structure became available. Multiple conformations for each structure were generated with OMEGA (OpenEye) and each conformation was docked individually using DOCK. Our initial screening of over 750,000 compounds identified a number of small molecules that could potentially interact with the ligand-binding pocket. The commercially available top-scoring compounds were screened for their ability to induce EphA2 activation in MDAMB-231 breast cancer cells. Because MDA-MB-231 cells express endogenous EphA2 as well as other Eph receptors, including EphA1, we overexpressed EphA2 in order to minimize the contribution from other Eph receptors in our analysis. […] Total cell lysates were probed with a previously described antibody that recognizes the activated Eph receptors. […] Originally developed as an antagonist for α1-adrenoreceptor, doxazosin (FIG. 1D) is an FDA-approved drug (CARDURA) for treating hypertension and benign prostate hyperplasia (BPH). To confirm specific EphA2 activation by doxazosin, we analyzed levels of activated Eph receptor in MDA-231-A2 cells following treatment with multiple doses of doxazosin and EphA2 immunoprecipitation.

[3] = 50 mg/kg i.p. daily for 10 days, versus vehicle
[4] = MDA-231-A2 cells, single 50 μM dose

T2 sequence (P29317 24-976): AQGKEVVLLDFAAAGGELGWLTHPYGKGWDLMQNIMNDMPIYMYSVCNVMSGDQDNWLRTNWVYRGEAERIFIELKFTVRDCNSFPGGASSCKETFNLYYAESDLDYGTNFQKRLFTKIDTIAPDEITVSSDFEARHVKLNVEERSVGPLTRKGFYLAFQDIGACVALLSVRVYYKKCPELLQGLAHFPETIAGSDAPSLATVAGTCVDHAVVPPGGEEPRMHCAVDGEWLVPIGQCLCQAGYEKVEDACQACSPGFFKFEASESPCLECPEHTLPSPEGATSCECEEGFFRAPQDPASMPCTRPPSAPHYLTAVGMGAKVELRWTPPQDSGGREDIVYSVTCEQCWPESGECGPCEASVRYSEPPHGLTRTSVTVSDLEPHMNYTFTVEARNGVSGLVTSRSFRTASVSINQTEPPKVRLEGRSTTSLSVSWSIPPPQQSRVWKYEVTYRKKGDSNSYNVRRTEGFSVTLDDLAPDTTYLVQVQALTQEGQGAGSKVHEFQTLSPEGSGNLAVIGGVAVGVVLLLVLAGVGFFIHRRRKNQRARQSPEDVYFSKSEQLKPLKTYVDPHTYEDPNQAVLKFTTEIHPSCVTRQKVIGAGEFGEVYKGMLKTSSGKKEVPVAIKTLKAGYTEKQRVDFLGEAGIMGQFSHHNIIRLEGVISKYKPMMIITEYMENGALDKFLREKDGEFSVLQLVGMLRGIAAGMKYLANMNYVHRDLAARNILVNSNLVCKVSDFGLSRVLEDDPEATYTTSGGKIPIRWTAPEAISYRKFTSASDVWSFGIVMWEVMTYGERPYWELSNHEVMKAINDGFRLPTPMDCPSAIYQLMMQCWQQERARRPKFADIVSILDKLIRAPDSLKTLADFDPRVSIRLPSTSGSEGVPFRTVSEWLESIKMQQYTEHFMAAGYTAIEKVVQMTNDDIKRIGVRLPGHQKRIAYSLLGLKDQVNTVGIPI
T1 sequence (P54764 20-986, species assumed): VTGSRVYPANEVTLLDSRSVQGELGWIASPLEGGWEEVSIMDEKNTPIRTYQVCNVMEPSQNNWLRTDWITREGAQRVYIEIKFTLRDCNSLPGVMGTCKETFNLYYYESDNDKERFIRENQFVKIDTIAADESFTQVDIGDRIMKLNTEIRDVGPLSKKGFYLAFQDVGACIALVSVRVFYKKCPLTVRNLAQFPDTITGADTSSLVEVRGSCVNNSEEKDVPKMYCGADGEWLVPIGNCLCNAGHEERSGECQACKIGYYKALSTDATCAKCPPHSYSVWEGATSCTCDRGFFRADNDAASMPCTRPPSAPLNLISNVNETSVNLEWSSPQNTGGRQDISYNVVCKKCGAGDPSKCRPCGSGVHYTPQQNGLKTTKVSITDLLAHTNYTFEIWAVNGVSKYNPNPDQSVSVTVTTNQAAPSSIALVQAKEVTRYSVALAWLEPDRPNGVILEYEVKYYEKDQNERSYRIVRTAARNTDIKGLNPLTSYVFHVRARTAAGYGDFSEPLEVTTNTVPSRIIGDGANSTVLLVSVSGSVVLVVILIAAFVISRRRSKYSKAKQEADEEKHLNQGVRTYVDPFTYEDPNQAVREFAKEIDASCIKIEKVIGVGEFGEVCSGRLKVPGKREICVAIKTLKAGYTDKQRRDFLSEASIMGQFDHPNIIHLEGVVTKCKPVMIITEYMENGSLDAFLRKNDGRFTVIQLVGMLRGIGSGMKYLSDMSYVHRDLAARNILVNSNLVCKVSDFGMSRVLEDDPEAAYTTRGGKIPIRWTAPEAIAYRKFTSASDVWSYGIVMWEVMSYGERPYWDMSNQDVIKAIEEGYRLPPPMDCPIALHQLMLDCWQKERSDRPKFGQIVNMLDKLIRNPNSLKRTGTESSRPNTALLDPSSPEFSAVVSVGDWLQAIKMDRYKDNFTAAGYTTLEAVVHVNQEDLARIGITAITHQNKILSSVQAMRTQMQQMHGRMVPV

SMILES: COc1cc2nc(N3CCN(C(=O)C4COc5ccccc5O4)CC3)nc(N)c2cc1OC (centres unmarked) [Doxazosin, 2-[4-(2,3-Dihydro-1,4-benzodioxine-2-carbonyl)piperazin-1-yl]-6,7-dimethoxyquinazolin-4-amine]
- EphA4 kinase activation (EphA4): activated both EphA2 and EphA4 kinases following a similar dose-response relationship
- side effects (PC3-DAB2IP KD cells; 50 mg/kg i.p. daily for 10 days): no notable side effects
- body weight (PC3-DAB2IP KD cells; [3]): no changes in body weight
- number of lung metastases (PC3-DAB2IP KD cells; [3]): significant reduction in the number of lung metastases
- primary tumor sizes (PC3-DAB2IP KD cells; [3]): difference was not statistically significant
- sizes of lung metastases (PC3-DAB2IP KD cells; [3]): significantly smaller
- total metastatic burden (PC3-DAB2IP KD cells; [3]): even more significantly reduced
- tumor cell dissemination to local lymph nodes (PC3-DAB2IP KD cells; [3]): reduced, but not to a significant extent
- overall survival (PC3-DAB2IP KD cells; 27 days after cell implantation, treated 10 days, vehicle 30%): 70%
- concentration at which EphA2 activation starts (EphA2 [1]; HEK 293-A2 cells, 30 minutes): 25 µM
- time at which EphA2 activation becomes evident (EphA2 [1]; HEK 293-A2 cells, single 50 μM dose): 10 min
- EphA2 kinase activation (EphA2 [1]; HEK 293 overexpressing EphA2, 60 minutes): activated both EphA2 and EphA4 kinases following a similar dose-response relationship
- EphA2 activation after phenoxybenzamine pretreatment versus no pretreatment (EphA2 [2]; MDA-231-A2 cells pretreated with 1 μM phenoxybenzamine): No difference in EphA2 activation
- EphA2 degradation (EphA2 [2]; MDA-231-A2 cells, high doses): degradation of EphA2 following exposure to high doses of doxazosin
- earliest time of significant EphA2 activation (EphA2 [2]; [4]): 5 min
- time of peak EphA2 activation (EphA2 [2]; [4]): around 30 min
- EphA2 activation in compound screen (EphA2 [2]; MDA-231-A2 cells, total cell lysates): activated EphA2 to the greatest extent
